Test results reported in patent US12679878B2, “CRF2 receptor agonists and their use in therapy” (SANOFI, priority 2020, dated 2026).
Starred links: 1 amine or outer side, 2 acyl side, 3 side chain; linkers in the order of their positions; H or OH if unused. Non-standard residues stand in square brackets, D forms with d. Residues, ends and D or L forms follow the SMILES beside them. Groups on a side chain read outwards from the residue. *: point of attachment. γGlu = O=C(O)[C@H](CCC(=O)[*:2])N[*:1]; Palmitoyl = CCCCCCCCCCCCCCCC(=O)*; Aib = CC(C)(N)C(=O)O

Assays:
human CRF2α receptor = target: T1, human CRF2α receptor (Homo sapiens, UniProt Q13324); experiment: cAMP agonism at human CRF2α receptor in TeloHEAC cells, FA modified peptides (Example 19.9); type: cell-based; details: 0% HSA, relative to urocortin 2
T1 construct: expressed in transfected cells; host or cells: TeloHEAC
T1 sequence (Q13324 1-411): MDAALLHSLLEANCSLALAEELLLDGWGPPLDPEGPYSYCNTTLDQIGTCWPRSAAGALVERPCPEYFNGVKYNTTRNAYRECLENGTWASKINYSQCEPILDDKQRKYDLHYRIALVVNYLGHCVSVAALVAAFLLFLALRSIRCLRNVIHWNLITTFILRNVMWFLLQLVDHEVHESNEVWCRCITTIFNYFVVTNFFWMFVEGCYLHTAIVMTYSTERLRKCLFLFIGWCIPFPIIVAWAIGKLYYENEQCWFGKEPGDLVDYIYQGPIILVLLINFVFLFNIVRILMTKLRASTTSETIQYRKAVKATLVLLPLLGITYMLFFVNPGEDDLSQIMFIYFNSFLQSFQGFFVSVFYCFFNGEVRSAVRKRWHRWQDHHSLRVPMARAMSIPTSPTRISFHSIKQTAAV
How it was run: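 Efficacy and EC50 are referenced to 100 nM urocortin 2 as 100%, with cAMP measured as the 665/620 nm HTRF ratio after 1 h at room temperature. Compounds (0.5 mM DMSO stock, 16 twofold dilutions) acted 30 min at 37 °C on CRF2α-expressing TeloHEAC cells, buffer containing IBMX and 0% or 0.2% HSA.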

CRF1R receptor = target: T2, CRF1R receptor (Homo sapiens, UniProt P34998); experiment: cAMP activity at anti-target CRF1R, CHO-K1 cell line clone 2 (Example 19.10); type: cell-based; details: ratio of CRF1 EC50 to CRF2 EC50
T2 construct: host or cells: CHO-K1 clone 2
T2 sequence (P34998 24-415): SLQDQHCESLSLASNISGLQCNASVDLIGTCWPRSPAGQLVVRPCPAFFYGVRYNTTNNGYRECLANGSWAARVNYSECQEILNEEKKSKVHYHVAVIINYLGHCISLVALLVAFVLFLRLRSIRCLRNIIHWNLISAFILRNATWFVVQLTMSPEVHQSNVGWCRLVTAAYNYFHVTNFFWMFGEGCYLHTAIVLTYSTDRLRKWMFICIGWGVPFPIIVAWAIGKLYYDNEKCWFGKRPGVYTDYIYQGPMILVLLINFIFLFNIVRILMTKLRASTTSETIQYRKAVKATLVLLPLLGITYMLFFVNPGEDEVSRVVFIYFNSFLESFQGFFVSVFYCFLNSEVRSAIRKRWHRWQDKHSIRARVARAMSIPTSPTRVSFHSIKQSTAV
How it was run: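 The cAMP read-out used the same protocol as the previous assay, except that Sauvagine at 100 nM set the 100% activation control. Cells were CHO-K1 clone 2 overexpressing CRF1R, cultured in F12 medium with 10% FBS and G418 and stored frozen until use.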

SMILES | EC50 (human CRF2α receptor) [nM] | CRF1/CRF2 ratio (CRF1R receptor)
CCCCCCCCCCCCCCCC(=O)N[C@@H](CCC(=O)NCCCC[C@H](NC(=O)[C@H](CC(C)C)NC(=O)[C@H](CCCCN)NC(=O)[C@@H](NC(=O)[C@@H]1CCCN1C(=O)[C@H](NC(=O)[C@H](CC(=O)O)NC(=O)[C@H](CC(C)C)NC(=O)[C@H](CO)NC(=O)[C@H](CC(C)C)NC(=O)[C@@H](NC(=O)[C@@H](N)[C@@H](C)CC)C(C)C)C(C)C)[C@@H](C)CC)C(=O)N[C@@H](CCC(N)=O)C(=O)N[C@H](C(=O)N[C@@H](CC(C)C)C(=O)N[C@@H](CC(C)C)C(=O)N[C@@H](CCCCN)C(=O)N[C@@H](CCC(N)=O)C(=O)N[C@@H](CCC(=O)O)C(=O)N[C@@H](CCCNC(=N)N)C(=O)N[C@@H](CCC(N)=O)C(=O)N[C@@H](CCCCN)C(=O)NC(C)(C)C(=O)N[C@@H](CCC(N)=O)C(=O)N[C@@H](CCCNC(=N)N)C(=O)N[C@@H](CCC(N)=O)C(=O)N[C@@H](CCC(N)=O)C(=O)N[C@@H](C)C(=O)N[C@@H](CCC(=O)O)C(=O)N[C@@H](CCCCN)C(=O)N[C@@H](CC(N)=O)C(=O)N[C@@H](CCCCN)C(=O)N[C@@H](CCC(N)=O)C(=O)N[C@H](C(=O)N[C@@H](CC(C)C)C(=O)N[C@@H](C)C(=O)N[C@@H](CCC(N)=O)C(=O)N[C@H](C(N)=O)C(C)C)[C@@H](C)CC)[C@@H](C)CC)C(=O)O [compound 208] (H-IVLSLD[dV]PIKLK([γGlu-Palmitoyl])QILLKQERQK[Aib]QRQQAEKNKQILAQV-NH2; N-terminus assumed) | 0.9 | 2
CCCCCCCCCCCCCCCC(=O)N[C@@H](CCC(=O)NCCCC[C@H](NC(=O)[C@H](CC(C)C)NC(=O)[C@H](CCCCN)NC(=O)[C@@H](NC(=O)[C@@H]1CCCN1C(=O)[C@H](NC(=O)[C@H](CC(=O)O)NC(=O)[C@H](CC(C)C)NC(=O)[C@H](CO)NC(=O)[C@H](CC(C)C)NC(=O)[C@@H](NC(=O)[C@@H](N)[C@@H](C)CC)C(C)C)C(C)C)[C@@H](C)CC)C(=O)N[C@@H](CCC(N)=O)C(=O)N[C@H](C(=O)N[C@@H](CC(C)C)C(=O)N[C@@H](CC(C)C)C(=O)N[C@@H](CCCCN)C(=O)N[C@@H](CCC(N)=O)C(=O)N[C@@H](CCC(=O)O)C(=O)N[C@@H](CCCNC(=N)N)C(=O)N[C@@H](CCC(N)=O)C(=O)N[C@@H](CCCCN)C(=O)N[C@@H](CCCCN)C(=O)N[C@@H](CCC(N)=O)C(=O)N[C@@H](CCCNC(=N)N)C(=O)N[C@@H](CCC(=O)O)C(=O)N[C@@H](CCC(N)=O)C(=O)N[C@@H](C)C(=O)N[C@@H](CCC(=O)O)C(=O)N[C@@H](CCCCN)C(=O)N[C@@H](CC(N)=O)C(=O)N[C@@H](CCCCN)C(=O)N[C@@H](CCC(N)=O)C(=O)N[C@H](C(=O)N[C@@H](CC(C)C)C(=O)N[C@@H](CCC(=O)O)C(=O)N[C@@H](CCC(N)=O)C(=O)N[C@H](C(N)=O)C(C)C)[C@@H](C)CC)[C@@H](C)CC)C(=O)O [compound 212] (H-IVLSLD[dV]PIKLK([γGlu-Palmitoyl])QILLKQERQKKQREQAEKNKQILEQV-NH2; N-terminus assumed) | 1.23 | 1
CCCCCCCCCCCCCCCC(=O)N[C@@H](CCC(=O)NCCCC[C@H](NC(=O)[C@H](CC(C)C)NC(=O)[C@H](CCCCN)NC(=O)[C@@H](NC(=O)[C@@H]1CCCN1C(=O)[C@H](NC(=O)[C@H](CC(=O)O)NC(=O)[C@H](CC(C)C)NC(=O)[C@H](CO)NC(=O)[C@H](CC(C)C)NC(=O)[C@@H](NC(=O)[C@@H](N)[C@@H](C)CC)C(C)C)C(C)C)[C@@H](C)CC)C(=O)N[C@@H](CCC(N)=O)C(=O)N[C@H](C(=O)N[C@@H](CC(C)C)C(=O)N[C@@H](CC(C)C)C(=O)N[C@@H](CCCCN)C(=O)N[C@@H](CCC(N)=O)C(=O)N[C@@H](CCC(=O)O)C(=O)N[C@@H](CCCNC(=N)N)C(=O)N[C@@H](CCC(N)=O)C(=O)N[C@@H](CCCCN)C(=O)N[C@@H](CCCCN)C(=O)N[C@@H](CCC(N)=O)C(=O)N[C@@H](CCCNC(=N)N)C(=O)N[C@@H](CCC(N)=O)C(=O)N[C@@H](CCC(N)=O)C(=O)N[C@@H](C)C(=O)N[C@@H](CCC(=O)O)C(=O)N[C@@H](CCCCN)C(=O)N[C@@H](CC(N)=O)C(=O)N[C@@H](CCCCN)C(=O)N[C@@H](CCC(N)=O)C(=O)N[C@H](C(=O)N[C@@H](CC(C)C)C(=O)N[C@@H](C)C(=O)N[C@@H](CCC(N)=O)C(=O)N[C@H](C(N)=O)C(C)C)[C@@H](C)CC)[C@@H](C)CC)C(=O)O [compound 214] (H-IVLSLD[dV]PIKLK([γGlu-Palmitoyl])QILLKQERQKKQRQQAEKNKQILAQV-NH2; N-terminus assumed) | 4.15 | 1

Continued by falling EC50 (human CRF2α receptor), values first:

EC50 (human CRF2α receptor) [nM] | CRF1/CRF2 ratio (CRF1R receptor) | SMILES
8.62 | 3 | CCCCCCCCCCCCCCCC(=O)N[C@@H](CCC(=O)NCCCC[C@H](NC(=O)[C@H](CC(C)C)NC(=O)[C@H](CCCCN)NC(=O)[C@@H](NC(=O)[C@@H]1CCCN1C(=O)[C@H](NC(=O)[C@H](CC(=O)O)NC(=O)[C@H](CC(C)C)NC(=O)[C@H](CO)NC(=O)[C@H](CC(C)C)NC(=O)[C@@H](NC(=O)[C@@H](N)[C@@H](C)CC)C(C)C)C(C)C)[C@@H](C)CC)C(=O)N[C@@H](CCC(N)=O)C(=O)N[C@H](C(=O)N[C@@H](CC(C)C)C(=O)N[C@@H](CC(C)C)C(=O)N[C@@H](CCCCN)C(=O)N[C@@H](CCC(N)=O)C(=O)N[C@@H](CCC(=O)O)C(=O)N[C@@H](CCCNC(=N)N)C(=O)N[C@@H](CCC(N)=O)C(=O)N[C@@H](CCCCN)C(=O)N[C@@H](CCCCN)C(=O)NC(C)(C)C(=O)N[C@@H](CCCNC(=N)N)C(=O)N[C@@H](CCC(N)=O)C(=O)N[C@@H](CCCCN)C(=O)N[C@@H](C)C(=O)N[C@@H](CCC(=O)O)C(=O)N[C@@H](CCCCN)C(=O)N[C@@H](CC(N)=O)C(=O)N[C@@H](CCCCN)C(=O)N[C@@H](CCC(N)=O)C(=O)N[C@H](C(=O)N[C@@H](CC(C)C)C(=O)N[C@@H](C)C(=O)N[C@@H](CCC(N)=O)C(=O)N[C@H](C(N)=O)C(C)C)[C@@H](C)CC)[C@@H](C)CC)C(=O)O [compound 209] (H-IVLSLD[dV]PIKLK([γGlu-Palmitoyl])QILLKQERQKK[Aib]RQKAEKNKQILAQV-NH2; N-terminus assumed)
0.68 | 6 | CCCCCCCCCCCCCCCC(=O)N[C@@H](CCC(=O)NCCCC[C@H](NC(=O)[C@H](CC(C)C)NC(=O)CNC(=O)[C@@H](NC(=O)[C@@H]1CCCN1C(=O)[C@H](NC(=O)[C@H](CC(=O)O)NC(=O)[C@H](CC(C)C)NC(=O)[C@H](CO)NC(=O)[C@H](CC(C)C)NC(=O)[C@@H](NC(=O)[C@@H](N)[C@@H](C)CC)C(C)C)C(C)C)[C@@H](C)CC)C(=O)N[C@@H](CCC(N)=O)C(=O)N[C@H](C(=O)N[C@@H](CC(C)C)C(=O)N[C@@H](CC(C)C)C(=O)N[C@@H](CCCCN)C(=O)N[C@@H](CCC(N)=O)C(=O)N[C@@H](CCC(=O)O)C(=O)N[C@@H](CCCNC(=N)N)C(=O)N[C@@H](CCC(N)=O)C(=O)N[C@@H](CCCCN)C(=O)N[C@@H](CCCCN)C(=O)NC(C)(C)C(=O)N[C@@H](CCCNC(=N)N)C(=O)N[C@@H](CCC(=O)O)C(=O)N[C@@H](CCC(N)=O)C(=O)N[C@@H](C)C(=O)N[C@@H](CCC(=O)O)C(=O)N[C@H](C(=O)N[C@@H](CC(N)=O)C(=O)N[C@@H](CCCCN)C(=O)N[C@@H](CCCNC(=N)N)C(=O)N[C@H](C(=O)N[C@@H](CC(C)C)C(=O)N[C@@H](CCC(=O)O)C(=O)N[C@@H](CCCNC(=N)N)C(=O)N[C@H](C(N)=O)C(C)C)[C@@H](C)CC)[C@@H](C)O)[C@@H](C)CC)C(=O)O [compound 207] (H-IVLSLD[dV]PIGLK([γGlu-Palmitoyl])QILLKQERQKK[Aib]REQAETNKRILERV-NH2; N-terminus assumed)
